Test results as given in ChEMBL document CHEMBL1201862, “PubChem BioAssay data set” (2004).
Several values for one entry are separate records, joined by “and”; a condition that tells them apart may be missing. Equal values may be shown once.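 Cells were grown in 96-well plates and exposed to each compound for 48 hours at five concentrations; endpoints were interpolated linearly between bracketing concentrations, or set to the highest concentration if not reached. At the GI50, growth is halved.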 Activity calls are given as the source filed them. Cut-off read from the data, not from the text of the source: active = GI50 up to about 1.1 µM and inactive = higher.

Experiments:
Assay in all cases: NCI anticancer screen, dose series, 48 h
UACC-62 = tested on: UACC-62
UO-31 = tested on: UO-31
SR = tested on: SR
IGROV-1 = tested on: IGROV-1
SK-OV-3 = tested on: SK-OV-3
CAKI-1 = tested on: CAKI-1
DLD-1 = tested on: DLD-1
SNB-75 = tested on: SNB-75
OVCAR-5 = tested on: OVCAR-5
OVCAR-3 = tested on: OVCAR-3
ACHN = tested on: ACHN
RXF 393 = tested on: RXF 393
SF-539 = tested on: SF-539
HOP-62 = tested on: HOP-62
KM12 = tested on: KM12
SK-MEL-2 = tested on: SK-MEL-2
M19-MEL = tested on: M19-MEL
LXFL 529 = tested on: LXFL 529
HT-29 = tested on: HT-29
SW-620 = tested on: SW-620
SN12C = tested on: SN12C
SK-MEL-5 = tested on: SK-MEL-5
SNB-19 = tested on: SNB-19
HCC 2998 = tested on: HCC 2998
SF-295 = tested on: SF-295
NCI-H522 = tested on: NCI-H522
COLO 205 = tested on: COLO 205
DMS-273 = tested on: DMS-273
CCRF-CEM = tested on: CCRF-CEM
NCI-H226 = tested on: NCI-H226
K562 = tested on: K562
SNB-78 = tested on: SNB-78
NCI-H23 = tested on: NCI-H23
OVCAR-4 = tested on: OVCAR-4
DMS-114 = tested on: DMS-114
A549 = tested on: A549
TK-10 = tested on: TK-10
LOX IMVI = tested on: LOX IMVI
OVCAR-8 = tested on: OVCAR-8
NCI-H460 = tested on: NCI-H460
HCT-116 = tested on: HCT-116
786-0 = tested on: 786-0
EKVX = tested on: EKVX
HOP-92 = tested on: HOP-92
Malme-3M = tested on: Malme-3M
U-251 = tested on: U-251
SK-MEL-28 = tested on: SK-MEL-28
M14 = tested on: M14
SF-268 = tested on: SF-268
HCT-15 = tested on: HCT-15
UACC-257 = tested on: UACC-257
RPMI-8226 = tested on: RPMI-8226
A498 = tested on: A498
KM-20L2 = tested on: KM-20L2
MOLT-4 = tested on: MOLT-4
HOP-18 = tested on: HOP-18
HL-60 = tested on: HL-60

Measured: GI50

CCN(CC)CCCn1cnc2ncccc2c1=O
inactive: UACC-62 > 100 µM | UO-31 > 100 µM | SR > 100 µM | IGROV-1 > 100 µM | SK-OV-3 > 100 µM | CAKI-1 > 100 µM | DLD-1 > 100 µM | SNB-75 > 100 µM | OVCAR-5 > 100 µM | OVCAR-3 > 100 µM | ACHN > 100 µM | RXF 393 > 100 µM | SF-539 > 100 µM | HOP-62 > 100 µM | KM12 > 100 µM | SK-MEL-2 > 100 µM | M19-MEL > 100 µM | LXFL 529 > 100 µM | HT-29 > 100 µM | SW-620 > 100 µM | SN12C > 100 µM | SK-MEL-5 > 100 µM | SNB-19 > 100 µM | HCC 2998 > 10 µM | SF-295 > 100 µM | NCI-H522 > 100 µM | COLO 205 > 100 µM | DMS-273 > 100 µM | CCRF-CEM > 100 µM | NCI-H226 > 100 µM | K562 > 100 µM | SNB-78 > 100 µM | NCI-H23 > 100 µM | OVCAR-4 > 100 µM | DMS-114 > 100 µM | A549 > 100 µM | TK-10 > 100 µM | LOX IMVI > 100 µM | OVCAR-8 > 100 µM | NCI-H460 > 100 µM | HCT-116 > 100 µM | 786-0 > 100 µM | EKVX > 100 µM | HOP-92 > 100 µM | Malme-3M > 100 µM | U-251 > 100 µM | SK-MEL-28 > 100 µM | M14 > 100 µM | SF-268 > 100 µM

Cc1ccc(S(=O)(=O)ON=C2CC(c3ccccc3)N(C)C(c3ccccc3)C2)cc1 (stereo unspecified)
16.7 µM and 18.5 µM: HCT-15
inactive: UACC-62 16.1 µM | UO-31 15.6 µM and 16.9 µM | SR 16.9 µM and 21.5 µM | IGROV-1 23.5 µM and 21.4 µM | SK-OV-3 22.5 µM and 21.8 µM | CAKI-1 24.6 µM and 15.6 µM | SNB-75 23.6 µM and 26 µM | OVCAR-5 20.8 µM | OVCAR-3 19.5 µM and 20 µM | ACHN 19.8 µM | RXF 393 20.2 µM and 18.8 µM | SF-539 17.1 µM | HOP-62 29 µM and 29.8 µM | UACC-257 18.9 µM and 19.3 µM | KM12 16.4 µM | SK-MEL-2 15 µM | M19-MEL 20.8 µM and 21.7 µM | LXFL 529 15.6 µM and 16.6 µM | HT-29 20 µM and 20.9 µM | SW-620 17.9 µM and 15.5 µM | SN12C 23.6 µM | SK-MEL-5 17.4 µM and 16.3 µM | RPMI-8226 18.3 µM | SNB-19 25.8 µM and 32.7 µM | HCC 2998 16.6 µM | A498 24.3 µM | SF-295 25.9 µM and 25.1 µM | NCI-H522 14.2 µM and 12.1 µM | COLO 205 15.6 µM and 14.8 µM | DMS-273 20.7 µM and 19.5 µM | CCRF-CEM 18.5 µM and 25.2 µM | KM-20L2 23 µM and 18.4 µM | NCI-H226 28.7 µM and 23.6 µM | SNB-78 19.1 µM and 23.1 µM | MOLT-4 17.9 µM and 20.6 µM | NCI-H23 25.2 µM and 19.9 µM | OVCAR-4 18.7 µM and 17.4 µM | DMS-114 14.7 µM | A549 23.2 µM and 20.6 µM | TK-10 21.8 µM and 20.6 µM | LOX IMVI 13.5 µM and 14 µM | OVCAR-8 17.6 µM and 16.9 µM | NCI-H460 19.2 µM and 20.7 µM | HCT-116 15.9 µM and 14.2 µM | 786-0 21.2 µM and 22.9 µM | EKVX 36.2 µM and 35.2 µM | HOP-92 15.9 µM and 15.3 µM | Malme-3M 25.5 µM and 21.1 µM | U-251 23.3 µM and 21.1 µM | SK-MEL-28 23.8 µM and 22.9 µM | M14 19.4 µM and 17.2 µM | SF-268 22.8 µM and 23.4 µM

Cc1cccc(C)c1NC(=O)C1C(=O)N(c2c(C)cccc2C)C(=O)/C1=N\NC(N)=S (stereo unspecified)
> 100 µM: HCT-15
inactive: UACC-62 > 100 µM | UO-31 > 100 µM | IGROV-1 > 100 µM | DLD-1 > 100 µM | OVCAR-5 > 100 µM | OVCAR-3 > 100 µM | ACHN > 100 µM | RXF 393 10.4 µM | SF-539 > 100 µM | HOP-62 > 100 µM | UACC-257 > 100 µM | KM12 > 100 µM | SK-MEL-2 > 100 µM | M19-MEL > 100 µM | LXFL 529 > 100 µM | HT-29 > 100 µM | SW-620 > 100 µM | SN12C > 100 µM | SK-MEL-5 > 100 µM | RPMI-8226 89.5 µM | SNB-19 > 100 µM | HCC 2998 > 100 µM | A498 > 100 µM | SF-295 > 100 µM | NCI-H522 > 100 µM | CCRF-CEM > 100 µM | KM-20L2 82.8 µM | K562 92.9 µM | SNB-78 > 100 µM | MOLT-4 75.3 µM | NCI-H23 > 100 µM | OVCAR-4 > 100 µM | DMS-114 36.1 µM | A549 > 100 µM | TK-10 > 100 µM | OVCAR-8 > 100 µM | NCI-H460 > 100 µM | HCT-116 58.2 µM | 786-0 > 100 µM | EKVX > 100 µM | HOP-92 > 100 µM | Malme-3M > 100 µM | U-251 > 100 µM | SK-MEL-28 > 100 µM | M14 > 100 µM | HOP-18 17.3 µM | SF-268 > 100 µM | HL-60 > 100 µM

COc1ccc(-c2cc(-c3ccco3)c(C#N)c(=O)n2C2OC(COC(C)=O)C(OC(C)=O)C(OC(C)=O)C2OC(C)=O)cc1 (stereo unspecified)
inactive: SR > 100 µM | CAKI-1 > 100 µM and 63.5 µM | DLD-1 50.9 µM | SNB-75 > 100 µM and 58.9 µM | OVCAR-5 > 100 µM | UACC-257 > 100 µM | KM12 69.7 µM | M19-MEL 76 µM | LXFL 529 11.4 µM | SW-620 > 100 µM | SK-MEL-5 > 100 µM | RPMI-8226 5.58 µM and 3.96 µM | HCC 2998 > 100 µM | COLO 205 > 100 µM | DMS-273 > 100 µM | KM-20L2 > 100 µM | NCI-H226 2.63 µM | SNB-78 > 100 µM | MOLT-4 > 100 µM | NCI-H23 > 100 µM | OVCAR-4 > 100 µM | A549 > 100 µM | TK-10 20 µM and 28.1 µM | EKVX > 100 µM | HOP-92 24.9 µM and 22.1 µM
